In PMC12667295, “A surrogate barrier model for high-throughput blood-brain barrier permeability prediction: integrating LLC-PK1-MOCK/MDR1 Cells and lysosomal trapping correction” (Drug Delivery, 2025):
Like-named read-outs stand apart in the source and are kept apart here.

Key:
[1] = cited from earlier work
[2] = Bidirectional transport across LLC-PK1 MOCK monolayer (Transwell); details: pig;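 further: compound quantified by LC-MS/MS in donor and receiver wells, efflux ratio as B-A over A-B Papp, recovery relative to initial donor amount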
P-gp (human MDR1) [3] = test: Bidirectional transport across LLC-PK1-MDR1 monolayer stably expressing human MDR1 (P-gp) (Transwell); details: pig, LLC-PK1, pH 7.4;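 further: 2 h incubation at 37 °C, receiver HBSS with 10 mM Hepes plus 1% BSA, LC-MS/MS of donor and receiver, recovery as receiver plus donor amount over initial donor amount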
Procedure: (§1) The overexpression and functional activity of P-glycoprotein (P-gp) in the LLC-PK1-MDR1 cells were rigorously validated through multiple methods.
(§2) Cells were passaged at 80−90% confluence (every 2−3 days) using trypsin-EDTA solution. […] The culture medium was replaced every other day, including 200 µL culture medium in the apical and 850 µL cell culture medium in the basolateral side. LLC-PK1 MOCK cells were used at passages of 3−30. LLC-PK1-MDR1 cells were cultured and passaged in the same manner as LLC-PK1 cells except at the density of 1 × 10^4 cells per well. LLC-PK1-MDR1 cells were used at passages of 3−25. For LLC-PK1 MOCK cells and LLC-PK1-MDR1 cells, the experiments were performed on the 4th and 7th day after seeding.
(§3) Monitoring permeability of positive control drugs. […] Samples were collected from the donor well at the start of the incubation (50 µL) as C0, and from the donor and receiver wells at the end of the incubation (50 µL). All samples were stored at - 40 °C for LC-MS/MS analysis.
(§4) Bidirectional transport experiments. […] The transwell experiments were conducted following above-mentioned procedure. […] When the recovery rate of the tested drug is below 80%, the possibility of intracellular accumulation should be considered. The polycarbonate (PC) membrane where cells are grown should be carefully peeled off from the cell culture medium and placed in 100 µL of HBSS buffer solution. […] The process was carried out on ice to prevent heat-induced degradation, applying a power in the range of 300 W for a total duration of 20 minutes. Thereafter, a quantitative analysis of the intracellular drug was conducted, and the drug recovery rate was recalculated based on this analysis.
(§5) The apparent permeability coefficient (Papp, cm/s) was calculated for each transport direction, A-B and B-A, using the following equation: Papp=dQ/dt×1/A×C0 where dQ/dt is the permeation rate (µmol/s), A is the surface area of the insert (0.33 cm^2, Corning), and C0 is the initial donor concentration (µM).
(§6) The efflux ratio (ER) is calculated as the ratio of Papp (B-A)/Papp (A-B). Recovery=TRcumrf+Cdf×VD/Cdi×VD×100% Where TRcumrf is the cumulative transported mass in the receiver chamber at the end of the incubation (nmol), Cdf is the concentration of the drug in the donor chamber at the end of the incubation (μM), VD is the volume of the donor chamber (mL), and Cdi is the initial concentration of the drug in the donor chamber (μM).
(§7) The method of the bidirectional transport experiment was the same as before.

P-gp (human MDR1) [4] = test: in vitro; details: pig
Procedure: as §1, §2, §3, §4, §5, §6, §7

in vitro = details: pig; for recovery at 2 h, 2 µM: pH 7.4
[5] = LLC-PK1, pH 7.4, Papp A-B, LLC-PK1 MOCK, 2 µM, 2 h, mean ± s, n = 3, BLQ = below 2 nM
[6] = LLC-PK1 MOCK cell monolayer (Transwell)

| SMILES | Kp, Brain ([1]; ref Fridén [2009]) | Kp,uu,Brian ([1]; ref Fridén [2009]) | Papp B→A at 2 h, 2 µM ([2]; LLC-PK1, pH 7.4) | Papp A→B at 2 h, 2 µM [2, 5] | Papp A→B at 2 h, 2 µM (P-gp (human MDR1) [3]) | Papp B→A at 2 h, 2 µM (P-gp (human MDR1) [3]) | recovery at 2 h, 2 µM (P-gp (human MDR1) [4]; LLC-PK1, pH 7.4) | recovery at 2 h, 2 µM (in vitro; [6]) | efflux ratio at 2 h, 2 µM ([2]; LLC-PK1, pH 7.4) | efflux ratio at 2 h, 2 µM (P-gp (human MDR1) [3]) | other results |
| --- | --- | --- | --- | --- | --- | --- | --- | --- | --- | --- | --- |
| CC(NC(C)(C)C)C(=O)c1cccc(Cl)c1 (stereo not shown) [Bupropion] | 9.78 | 2.000 | 23.8 ± 0.67 ×10⁻⁶ cm/s | 27.3 ± 2.88 ×10⁻⁶ cm/s | 26.6 ± 2.58 ×10⁻⁶ cm/s | 19.5 ± 1 ×10⁻⁶ cm/s |  |  |  |  |  |
| C=C[C@H]1C[N@@]2CC[C@H]1C[C@@H]2[C@@H](O)c1ccnc2ccc(OC)cc12 [Quinidine] |  |  | 17.2 ± 2.85 ×10⁻⁶ cm/s | 23.4 ± 0.37 ×10⁻⁶ cm/s | 2.48 ± 1.06 ×10⁻⁶ cm/s | 42.9 ± 2.11 ×10⁻⁶ cm/s | 98.7 ± 14.8% | 99.1 ± 15.6% |  |  | Kp, Brain ([1]; ref Nicolaï [2020]): 0.32; Kp,uu,Brian ([1]; ref Nicolaï [2020]): 0.036 |
| CCC1(c2cnc[nH]2)Cc2ccccc2C1 [Atipamezole] |  |  | 30.2 ± 4.52 ×10⁻⁶ cm/s | 33.9 ± 1.72 ×10⁻⁶ cm/s | 33.7 ± 5.21 ×10⁻⁶ cm/s | 27.6 ± 1.5 ×10⁻⁶ cm/s |  |  |  |  | Kp, Brain ([1]; ref Li [2019]): 4.40; Kp,uu,Brian ([1]; ref Li [2019]): 1.700 |
| Nc1nnc(-c2cccc(Cl)c2Cl)c(N)n1 [Lamotrigine] | 2.02 | 0.880 |  |  |  |  |  |  |  |  |  |
| COc1cccc(C2(O)CCCCC2CN(C)C)c1 (stereo not shown) [Tramadol] | 5.29 | 1.46 | 23.3 ± 1.43 ×10⁻⁶ cm/s |  | 26.3 ± 1.05 ×10⁻⁶ cm/s | 25.2 ± 1.1 ×10⁻⁶ cm/s | 109 ± 2.73% |  | 0.85 | 0.96 | recovery at 2 h, 2 µM (in vitro): 113 ± 3.59%; Papp A→B at 2 h, 2 µM ([2]; LLC-PK1, pH 7.4): 27.3 ± 0.2 ×10⁻⁶ cm/s |
| COc1ccc2c(c1)c(CC(=O)O)c(C)n2C(=O)c1ccc(Cl)cc1 [Indomethacin] | 0.01 | 0.11 | 18.9 ± 0.31 ×10⁻⁶ cm/s | 16.1 ± 2.07 ×10⁻⁶ cm/s | 14.9 ± 1.29 ×10⁻⁶ cm/s | 20.3 ± 2.74 ×10⁻⁶ cm/s | 99.7 ± 4.24% | 109 ± 5.97% | 1.18 | 1.36 |  |
| CC(C)NCC(O)COc1cccc2ccccc12 (stereo not shown) [Propranolol] | 16.37 | 0.61 | 20.1 ± 0.71 ×10⁻⁶ cm/s | 22.8 ± 2.13 ×10⁻⁶ cm/s | 16.8 ± 0.09 ×10⁻⁶ cm/s | 16.1 ± 1.46 ×10⁻⁶ cm/s | 80.7 ± 1.03% | 90.9 ± 7.14% | 0.88 | 0.96 |  |
| Nc1c2c(nc3ccccc13)CCCC2 [Tacrine] |  |  |  |  |  |  | 105 ± 4.23% |  |  |  | Papp B→A at 2 h, 2 µM (P-gp (human MDR1) [4]; LLC-PK1, pH 7.4): 34.1 ± 2.16 ×10⁻⁶ cm/s; Papp A→B at 2 h, 2 µM (P-gp (human MDR1) [4]; LLC-PK1, pH 7.4, Papp A-B): 23.6 ± 1.1 ×10⁻⁶ cm/s; Kp, Brain ([1]; rat, in vivo): 9.56; Kp,uu,Brian ([1]; rat, in vivo): 0.78; Papp B→A at 2 h, 2 µM (in vitro; LLC-PK1, pH 7.4): 27.2 ± 2.27 ×10⁻⁶ cm/s; Papp A→B at 2 h, 2 µM (in vitro; LLC-PK1, pH 7.4, Papp A-B): 30.9 ± 1.76 ×10⁻⁶ cm/s; recovery at 2 h, 2 µM (in vitro): 114 ± 3.02% |
| CN(C)CCOC(c1ccccc1)c1ccccc1 [Diphenhydramine] |  |  |  |  |  |  |  | 101 ± 7.46% |  |  |  |
